Patent publication US20230203098A1, “HUMAN TRANSFERRIN RECEPTOR BINDING PEPTIDE” (priority 2020, published 2023)
Where a SMILES comes first, the peptide text is derived from it. Bridges are numbered along the chain shown (N, C = ends). [ ]: non-standard residue; d: D form. The star is where a group is joined. X2 = O=C(O)c1cc(C(=O)*)ccc1-c1c2ccc(=O)cc-2oc2cc(O)ccc12; PEG12 = NCCOCCOCCOCCOCCOCCOCCOCCOCCOCCOCCOCCOCCC(=O)O; NMePhe(3-Cl) = CN[C@@H](Cc1cccc(Cl)c1)C(=O)O; NMeW = CN[C@@H](Cc1c[nH]c2ccccc12)C(=O)O

Biological target: transferrin receptor (hTfR) (Homo sapiens, UniProt P02786)
Sequence (P02786 whole entry): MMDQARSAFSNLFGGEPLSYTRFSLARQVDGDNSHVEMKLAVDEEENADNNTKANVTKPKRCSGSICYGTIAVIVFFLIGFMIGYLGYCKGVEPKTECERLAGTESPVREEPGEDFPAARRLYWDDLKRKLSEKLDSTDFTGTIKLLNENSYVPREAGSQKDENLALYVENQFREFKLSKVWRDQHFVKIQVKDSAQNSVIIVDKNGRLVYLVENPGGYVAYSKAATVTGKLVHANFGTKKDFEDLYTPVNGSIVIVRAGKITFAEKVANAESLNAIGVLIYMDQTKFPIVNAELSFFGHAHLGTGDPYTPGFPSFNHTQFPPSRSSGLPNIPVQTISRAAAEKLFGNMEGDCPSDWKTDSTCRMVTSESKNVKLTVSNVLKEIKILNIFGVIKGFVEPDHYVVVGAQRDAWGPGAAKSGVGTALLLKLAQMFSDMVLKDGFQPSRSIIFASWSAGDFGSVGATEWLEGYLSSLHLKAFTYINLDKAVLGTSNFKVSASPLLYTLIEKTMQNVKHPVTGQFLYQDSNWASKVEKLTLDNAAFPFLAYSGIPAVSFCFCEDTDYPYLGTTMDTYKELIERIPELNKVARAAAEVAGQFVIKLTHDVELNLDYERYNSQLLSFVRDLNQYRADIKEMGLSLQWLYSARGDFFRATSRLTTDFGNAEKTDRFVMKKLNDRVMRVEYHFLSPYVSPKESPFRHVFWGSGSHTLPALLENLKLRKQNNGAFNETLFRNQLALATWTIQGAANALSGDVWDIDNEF
Experiment: Intermolecular interaction evaluation test between transferrin receptor (hTfR) and peptide by surface plasmon resonance (SPR)
Format: binding
Settings: SPR; peptides, linker-added peptides and FITC conjugates, Patent ID 203-230; read-out: KD
Method in brief: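 hTfR captured on Ni-NTA chip then amine-coupled; peptides run single-cycle kinetics at 5–100 nM in 10 mM HEPES pH 8.0, 150 mM NaCl, 0.05% Tween 20, 0.1% BSA, 1.0% DMSO. KD from least-squares curve fitting of sensorgrams.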

For `CC[C@H](C)[C@@H]1NC(=O)[C@H](Cc2ccc(OC)cc2)NC(=O)[C@H](Cc2ccc(O)cc2)NC(=O)[C@H](CC(N)=O)NC(=O)[C@H](Cc2c[nH]c3ccccc23)N(C)C(=O)[C@H](C(C)C)NC(=O)[C@H](Cc2cccc(Cl)c2)N(C)C(=O)[C@H](CCC(=O)O)NC(=O)[C@H](C)NC(=O)CSC[C@@H](C(N)=O)NC(=O)[C@H](CC(N)=O)NC(=O)[C@H](CCCNC(=N)N)NC(=O)[C@@H]2CCCN2C(=O)[C@H](C(C)C)NC1=O` [compound 207] ({CH2CO}-AE[NMePhe(3-Cl)]V[NMeW]NYY(Me)IVPRNC-NH2; thioether N-14), the Kd was 1 to 100 nM.
Compound `CC[C@H](C)[C@@H]1NC(=O)[C@H](Cc2ccccc2)NC(=O)[C@H](Cc2ccc(O)cc2)NC(=O)[C@H](CC(N)=O)NC(=O)[C@H](Cc2c[nH]c3ccccc23)NC(=O)[C@H](C(C)C)NC(=O)[C@H](Cc2c[nH]c3ccccc23)NC(=O)[C@H](C(C)C)NC(=O)[C@H](C)NC(=O)CSC[C@@H](C(=O)NCCOCCOCCOCCOCCOCCOCCOCCOCCOCCOCCOCCOCCC(=O)N[C@@H](CCCCNC(=O)c2ccc(-c3c4ccc(=O)cc-4oc4cc(O)ccc34)c(C(=O)O)c2)C(N)=O)NC(=O)[C@H](Cc2c[nH]cn2)NC(=O)[C@H](CCCNC(=N)N)NC(=O)[C@@H]2CCCN2C(=O)[C@H]([C@@H](C)CC)NC1=O` [compound 208] ({CH2CO}-AVWVWNYFIIPRHC[PEG12]K(X2)-NH2; thioether N-14) has a Kd of 1 to 100 nM.
With `CC[C@H](C)[C@@H]1NC(=O)[C@H](Cc2ccc(O)cc2)NC(=O)[C@H](Cc2ccc(O)cc2)NC(=O)[C@H](CC(N)=O)NC(=O)[C@H](Cc2c[nH]c3ccccc23)NC(=O)[C@H](C(C)C)NC(=O)[C@H](Cc2ccccc2)NC(=O)[C@H](C(C)C)NC(=O)[C@H](C)NC(=O)CSC[C@@H](C(=O)NCCOCCOCCOCCOCCOCCOCCOCCOCCOCCOCCOCCOCCC(=O)N[C@@H](CCCCNC(=O)c2ccc(-c3c4ccc(=O)cc-4oc4cc(O)ccc34)c(C(=O)O)c2)C(N)=O)NC(=O)[C@H](CC(=O)O)NC(=O)[C@H](CCCNC(=N)N)NC(=O)[C@@H]2CCCN2C(=O)[C@H](C(C)C)NC1=O` [compound 209] ({CH2CO}-AVFVWNYYIVPRDC[PEG12]K(X2)-NH2; thioether N-14) the Kd was 1 to 100 nM.
For `CC[C@H](C)[C@@H]1NC(=O)[C@H](Cc2ccc(O)cc2)NC(=O)[C@H](Cc2ccc(O)cc2)NC(=O)[C@H](CC(N)=O)NC(=O)[C@H](Cc2c[nH]c3ccccc23)NC(=O)[C@H](C(C)C)NC(=O)[C@H](Cc2ccccc2)NC(=O)[C@H](C(C)C)NC(=O)[C@H](C)NC(=O)CSC[C@@H](C(=O)NCCOCCOCCOCCOCCOCCOCCOCCOCCOCCOCCOCCOCCC(=O)N[C@@H](CCCCNC(=O)c2ccc(-c3c4ccc(=O)cc-4oc4cc(O)ccc34)c(C(=O)O)c2)C(N)=O)NC(=O)[C@H](Cc2c[nH]c3ccccc23)N(C)C(=O)[C@H](CCCNC(=N)N)NC(=O)[C@@H]2CCCN2C(=O)[C@H](C(C)C)NC1=O` [compound 210] ({CH2CO}-AVFVWNYYIVPR[NMeW]C[PEG12]K(X2)-NH2; thioether N-14), the Kd was 1 to 100 nM.
`CC[C@H](C)[C@@H]1NC(=O)[C@H](Cc2ccc(O)cc2)NC(=O)[C@H](Cc2ccc(O)cc2)NC(=O)[C@H](CC(N)=O)NC(=O)[C@H](Cc2c[nH]c3ccccc23)NC(=O)[C@H](C(C)C)NC(=O)[C@H](Cc2ccccc2)NC(=O)[C@H](C(C)C)NC(=O)[C@H](C)NC(=O)CSC[C@@H](C(=O)NCCOCCOCCOCCOCCOCCOCCOCCOCCOCCOCCOCCOCCC(=O)N[C@@H](CCCCNC(=O)c2ccc(-c3c4ccc(=O)cc-4oc4cc(O)ccc34)c(C(=O)O)c2)C(N)=O)NC(=O)[C@H](CCC(=O)O)NC(=O)[C@H](CCCNC(=N)N)NC(=O)[C@@H]2CCCN2C(=O)[C@H](C(C)C)NC1=O` [compound 211] ({CH2CO}-AVFVWNYYIVPREC[PEG12]K(X2)-NH2; thioether N-14) showed a Kd of 1 to 100 nM.
